Results: ChEMBL document CHEMBL1153245, “A profile of the in vitro anti-tumor activity of imidazolium-based ionic liquids” (2010)

Experiments:
Type in all cases: functional
[1] = system: Malme-3M; test: Anticancer activity against human MALME-3M cells assessed cell growth at 10 uM after 48 hrs by sulforhodamine B assay relative to control
[2] = system: UACC-62; test: Anticancer activity against human UACC62 cells after 48 hrs by sulforhodamine B assay
[3] = system: U-251; test: Anticancer activity against human U251 cells after 48 hrs by sulforhodamine B assay
[4] = system: NCI-H23; test: Anticancer activity against human NCI-H23 cells after 48 hrs by sulforhodamine B assay
[5] = system: SF-295; test: Anticancer activity against human SF295 cells after 48 hrs by sulforhodamine B assay
[6] = system: SW-620; test: Anticancer activity against human SW620 cells after 48 hrs by sulforhodamine B assay
[7] = system: MCF7; test: Anticancer activity against human MCF7 cells after 48 hrs by sulforhodamine B assay
[8] = system: DU-145; test: Anticancer activity against human DU145 cells after 48 hrs by sulforhodamine B assay
[9] = system: BT-549; test: Anticancer activity against human BT549 cells assessed cell growth at 10 uM after 48 hrs by sulforhodamine B assay relative to control
[10] = system: SK-MEL-5; test: Anticancer activity against human SK-MEL-5 cells assessed cell growth at 10 uM after 48 hrs by sulforhodamine B assay relative to control
[11] = system: MDA-MB-435; test: Anticancer activity against human MDA-MB-435 cells assessed cell growth at 10 uM after 48 hrs by sulforhodamine B assay relative to control
[12] = system: SNB-19; test: Anticancer activity against human SNB19 cells assessed cell growth at 10 uM after 48 hrs by sulforhodamine B assay relative to control
[13] = system: BT-549; test: Anticancer activity against human BT549 cells after 48 hrs by sulforhodamine B assay; settings: for CC50: read-out: LC50 (the source's name)
[14] = system: NCI/ADR-RES; test: Anticancer activity against human NCI/ADR-RES cells after 48 hrs by sulforhodamine B assay
[15] = system: CAKI-1; test: Anticancer activity against human Caki1 cells after 48 hrs by sulforhodamine B assay
[16] = system: NCI-H322M; test: Anticancer activity against human NCI-H322M cells after 48 hrs by sulforhodamine B assay
[17] = system: OVCAR-3; test: Anticancer activity against human OVCAR-3 cells after 48 hrs by sulforhodamine B assay
[18] = system: HOP-92; test: Anticancer activity against human HOP92 cells after 48 hrs by sulforhodamine B assay
[19] = system: HT-29; test: Anticancer activity against human HT-29 cells assessed cell growth at 10 uM after 48 hrs by sulforhodamine B assay relative to control
[20] = system: U-251; test: Anticancer activity against human U251 cells assessed cell growth at 10 uM after 48 hrs by sulforhodamine B assay relative to control
[21] = system: UACC-257; test: Anticancer activity against human UACC257 cells assessed cell growth at 10 uM after 48 hrs by sulforhodamine B assay relative to control
[22] = system: SK-MEL-28; test: Anticancer activity against human SK-MEL-28 cells assessed cell growth at 10 uM after 48 hrs by sulforhodamine B assay relative to control
[23] = system: UO-31; test: Anticancer activity against human UO31 cells after 48 hrs by sulforhodamine B assay
[24] = system: NCI-H226; test: Anticancer activity against human NCI-H226 cells assessed cell growth at 10 uM after 48 hrs by sulforhodamine B assay relative to control
[25] = system: LOX IMVI; test: Anticancer activity against human LOXIMVI cells after 48 hrs by sulforhodamine B assay; settings: for CC50: read-out: LC50 (the source's name)
[26] = system: CCRF-CEM; test: Anticancer activity against human CCRF-CEM cells after 48 hrs by sulforhodamine B assay
[27] = system: 786-0; test: Anticancer activity against human 786-0 cells after 48 hrs by sulforhodamine B assay
[28] = system: MDA-MB-231; test: Anticancer activity against human MDA-MB-231 cells after 48 hrs by sulforhodamine B assay; settings: for CC50: read-out: LC50 (the source's name)
[29] = system: SNB-75; test: Anticancer activity against human SNB75 cells after 48 hrs by sulforhodamine B assay; settings: for CC50: read-out: LC50 (the source's name)
[30] = system: OVCAR-8; test: Anticancer activity against human OVCAR8 cells after 48 hrs by sulforhodamine B assay
[31] = system: HCT-15; test: Anticancer activity against human HCT15 cells assessed cell growth at 10 uM after 48 hrs by sulforhodamine B assay relative to control
[32] = system: SN12C; test: Anticancer activity against human SN12C cells after 48 hrs by sulforhodamine B assay
[33] = system: MCF7; test: Anticancer activity against human MCF7 cells assessed cell growth at 10 uM after 48 hrs by sulforhodamine B assay relative to control
[34] = system: NCI-H460; test: Anticancer activity against human NCI-H460 cells after 48 hrs by sulforhodamine B assay
[35] = system: SK-MEL-2; test: Anticancer activity against human SK-MEL-2 cells assessed cell growth at 10 uM after 48 hrs by sulforhodamine B assay relative to control
[36] = system: ACHN; test: Anticancer activity against human ACHN cells after 48 hrs by sulforhodamine B assay
[37] = system: EKVX; test: Anticancer activity against human EKVX cells after 48 hrs by sulforhodamine B assay
[38] = system: MDA-MB-468; test: Anticancer activity against human MDA-MB-468 cells assessed cell growth at 10 uM after 48 hrs by sulforhodamine B assay relative to control
[39] = system: HT-29; test: Anticancer activity against human HT-29 cells after 48 hrs by sulforhodamine B assay
[40] = system: HL-60(TB); test: Anticancer activity against human HL-60(TB) cells after 48 hrs by sulforhodamine B assay; settings: for CC50: read-out: LC50 (the source's name)
[41] = system: KM12; test: Anticancer activity against human KM12 cells after 48 hrs by sulforhodamine B assay; settings: for CC50: read-out: LC50 (the source's name)

## CCCCCCCCCCCCCCCC[n+]1ccn(C)c1.[Cl-]
[1]
  Activity: -77.38%
[2]; Homo sapiens, UACC-62, 48 h
  GI50: 1.04 µM
[3]; Homo sapiens, U-251, 48 h
  GI50: 0.334 µM
[3]; Homo sapiens, U-251, 48 h, read-out: LC50 (the source's name)
  CC50: 3.87 µM
[4]; Homo sapiens, NCI-H23, 48 h
  GI50: 0.504 µM
[4]; Homo sapiens, NCI-H23, 48 h, read-out: LC50 (the source's name)
  CC50: > 100 µM
[5]; Homo sapiens, SF-295, 48 h
  GI50: 0.383 µM
[5]; Homo sapiens, SF-295, 48 h, read-out: LC50 (the source's name)
  CC50: 5.02 µM
[6]; Homo sapiens, SW-620, 48 h
  GI50: 0.461 µM
[7]; Homo sapiens, MCF7, 48 h
  GI50: 0.431 µM
[8]; Homo sapiens, DU-145, 48 h
  GI50: 0.719 µM
[8]; Homo sapiens, DU-145, 48 h, read-out: LC50 (the source's name)
  CC50: 4.48 µM
[9]
  Activity: -65.21%
[10]
  Activity: -95.2%
[11]
  Activity: -55.77%
[12]
  Activity: -75.88%
[13]; Homo sapiens, BT-549, 48 h
  GI50: 1.04 µM
  CC50: 5.92 µM
[14]; Homo sapiens, NCI/ADR-RES, 48 h
  GI50: 2.1 µM
[15]; Homo sapiens, CAKI-1, 48 h
  GI50: 0.385 µM
[16]; Homo sapiens, NCI-H322M, 48 h
  GI50: 1.74 µM
[17]; Homo sapiens, OVCAR-3, 48 h
  GI50: 0.414 µM
[18]; Homo sapiens, HOP-92, 48 h
  GI50: 1.02 µM
[18]; Homo sapiens, HOP-92, 48 h, read-out: LC50 (the source's name)
  CC50: 7.3 µM
[19]
  Activity: -100%
[20]
  Activity: -69.96%
[21]
  Activity: -61.13%
[22]
  Activity: -86.22%
[23]; Homo sapiens, UO-31, 48 h
  GI50: 1.1 µM
[24]
  Activity: -60.54%
[25]; Homo sapiens, LOX IMVI, 48 h
  GI50: 0.334 µM
  CC50: 3.78 µM
[26]; Homo sapiens, CCRF-CEM, 48 h
  GI50: 0.164 µM
[27]; Homo sapiens, 786-0, 48 h
  GI50: 1.18 µM
[28]; Homo sapiens, MDA-MB-231, 48 h
  GI50: 0.616 µM
  CC50: 4.55 µM
[29]; Homo sapiens, SNB-75, 48 h
  GI50: 0.555 µM
  CC50: 5.65 µM
[30]; Homo sapiens, OVCAR-8, 48 h
  GI50: 0.865 µM
[31]
  Activity: 9.85%
[32]; Homo sapiens, SN12C, 48 h
  GI50: 1 µM
[33]
  Activity: -79.92%
[34]; Homo sapiens, NCI-H460, 48 h
  GI50: 0.498 µM
[35]
  Activity: -64.47%
[36]; Homo sapiens, ACHN, 48 h
  GI50: 0.832 µM
[37]; Homo sapiens, EKVX, 48 h
  GI50: 0.358 µM
[37]; Homo sapiens, EKVX, 48 h, read-out: LC50 (the source's name)
  CC50: 6.77 µM
[38]
  Activity: -78.99%
[39]; Homo sapiens, HT-29, 48 h
  GI50: 0.311 µM
[39]; Homo sapiens, HT-29, 48 h, read-out: LC50 (the source's name)
  CC50: 5.06 µM
[40]; Homo sapiens, HL-60, 48 h
  GI50: 0.131 µM
  CC50: 0.816 µM
[41]; Homo sapiens, KM12, 48 h
  GI50: 0.357 µM
  CC50: 3.57 µM

## CCCCCCCCCCCC[n+]1ccn(C)c1.F[B-](F)(F)F
[1]
  Activity: 31.87%
[2]
  GI50: 4.25 µM
[3]
  GI50: 2.81 µM
[4]
  GI50: 2.44 µM
[5]
  GI50: 2.93 µM
[6]
  GI50: 7.25 µM
[7]
  GI50: 1.95 µM
[8]
  GI50: 10.9 µM
[9]
  Activity: 1.51%
[10]
  Activity: -19.73%
[11]
  Activity: 20.42%
[12]
  Activity: 39.2%
[13]
  GI50: 2.38 µM
  CC50: 51.9 µM
[14]
  GI50: 39.7 µM
[15]
  GI50: 2.99 µM
[16]
  GI50: 24.6 µM
[17]
  GI50: 3.33 µM
[18]
  GI50: 7.84 µM
[19]
  Activity: 24.82%
[20]
  Activity: 36.74%
[21]
  Activity: -7.74%
[22]
  Activity: 62.65%
[23]
  GI50: 15.9 µM
[24]
  Activity: 37.19%
[25]
  GI50: 1.36 µM
  CC50: 34.9 µM
[26]
  GI50: 1.62 µM
[27]
  GI50: 5.77 µM
[28]
  GI50: 4.68 µM
  CC50: 64.2 µM
[29]
  GI50: 3.71 µM
  CC50: 90.3 µM
[30]
  GI50: 3.25 µM
[31]
  Activity: 82.38%
[32]
  GI50: 3.35 µM
[33]
  Activity: -1.79%
[34]
  GI50: 4.29 µM
[35]
  Activity: 18.52%
[36]
  GI50: 10 µM
[37]
  GI50: 0.792 µM
[38]
  Activity: -43.37%
[39]
  GI50: 2.19 µM
[40]
  GI50: 0.324 µM
  CC50: 9.93 µM
[41]
  GI50: 1.85 µM
  CC50: 23 µM
